Results taken from the NIST ThermoML archive (doi:10.1021/je1009619).
± gives the expanded uncertainty stated by the source.

Experiments:
[1] = Liquid, Vibrating tube method
[2] = xn = mol fraction of the nth substance listed; details: Liquid, Vibrating tube method, x1 = 1

C=C(C)[C@H]1CC=C(C)CC1 [(R)-1-methyl-4-(1-methylethenyl)cyclohexene]
mass density [kg/m3], [1]
Details | 283.15 K | 298.15 K | 313.15 K | 328.15 K | 343.15 K | 358.15 K
20000 kPa | 862 ± 0.9 | 851.5 ± 0.9 | 841 ± 0.9 | 830.5 ± 0.9 | 820.1 ± 0.9 | 810.2 ± 0.9
25000 kPa | 864.9 ± 0.9 | 854.5 ± 0.9 | 844.2 ± 0.9 | 833.8 ± 0.9 | 823.7 ± 0.9 | 813.9 ± 0.9
30000 kPa | 867.7 ± 0.9 | 857.6 ± 0.9 | 847.2 ± 0.9 | 837.2 ± 0.9 | 827.3 ± 0.9 | 817.6 ± 0.9
35000 kPa | 870.4 ± 0.9 | 860.9 ± 0.9 | 850.3 ± 0.9 | 840.4 ± 1 | 831.1 ± 1 | 821.3 ± 1
40000 kPa | 873.3 ± 1 | 863.4 ± 1 | 853.3 ± 1 | 843.8 ± 1 | 834.6 ± 1 | 824.8 ± 1

C=C(C)[C@H]1CC=C(C)CC1 [(R)-1-methyl-4-(1-methylethenyl)cyclohexene] + CC1=CC[C@H]2C[C@@H]1C2(C)C
mass density [kg/m3], [2]
Details | 283.15 K | 298.15 K | 313.15 K | 328.15 K | 343.15 K | 358.15 K
20000 kPa | 862 ± 0.9 | 851.5 ± 0.9 | 841 ± 0.9 | 830.5 ± 0.9 | 820.1 ± 0.9 | 810.2 ± 0.9
25000 kPa | 864.9 ± 0.9 | 854.5 ± 0.9 | 844.2 ± 0.9 | 833.8 ± 0.9 | 823.7 ± 0.9 | 813.9 ± 0.9
30000 kPa | 867.7 ± 0.9 | 857.6 ± 0.9 | 847.2 ± 0.9 | 837.2 ± 0.9 | 827.3 ± 0.9 | 817.6 ± 0.9
35000 kPa | 870.4 ± 0.9 | 860.9 ± 0.9 | 850.3 ± 0.9 | 840.4 ± 1 | 831.1 ± 1 | 821.3 ± 1
40000 kPa | 873.3 ± 1 | 863.4 ± 1 | 853.3 ± 1 | 843.8 ± 1 | 834.6 ± 1 | 824.8 ± 1

CC1=CC[C@H]2C[C@@H]1C2(C)C [(S)-2-pinene]
mass density [kg/m3], [1]
Details | 283.15 K | 298.15 K | 313.15 K | 328.15 K | 343.15 K | 358.15 K
20000 kPa | 880 ± 0.9 | 868.8 ± 0.9 | 858 ± 0.9 | 846.7 ± 0.9 | 835.9 ± 0.9 | 825 ± 0.9
25000 kPa | 883.2 ± 0.9 | 872.1 ± 0.9 | 861.3 ± 0.9 | 850.4 ± 0.9 | 839.7 ± 0.9 | 829.2 ± 0.9
30000 kPa | 886.3 ± 0.9 | 875.3 ± 0.9 | 864.7 ± 0.9 | 854 ± 0.9 | 843.8 ± 0.9 | 833.3 ± 0.9
35000 kPa | 889.4 ± 0.9 | 878.6 ± 0.9 | 867.9 ± 0.9 | 857.5 ± 0.9 | 847.7 ± 1 | 837.4 ± 1
40000 kPa | 892.5 ± 1 | 881.9 ± 1 | 871.3 ± 1 | 861.1 ± 1 | 851.4 ± 1 | 841.5 ± 1
